Experimental data taken from EP0326418A1, “GRF analogs” (THE UPJOHN COMPANY, priority 1988, dated 1989).
Like-named read-outs stand apart in the source and are kept apart here. Where a SMILES comes first, the peptide text is derived from it. [ ]: non-standard residue; d: D form. The star is where a group is joined. Desaminotyrosyl = O=C(CCc1ccc(O)cc1)*; Cya = N[C@@H](CS(=O)(=O)O)C(=O)O; X1 = O=C(Cc1ccc(O)cc1)*

Experiments:
[1] = system: bovine anterior pituitary cell culture; format: cell-based
[2] = proteolytic stability in bovine plasma (HPLC, modified Frohman method); details: bovine plasma
[3] = another assay, potency as a fraction of bGRF(1-44)NH₂

| Compound | the potency of bGRF(1-44)NH₂ [1] | remaining at 1 h [2] | the potency of bGRF(1-44)NH₂ [1, 3] | potency (in words) ([1]; contemplated, compound not tested) |
| --- | --- | --- | --- | --- |
| CC[C@H](C)[C@H](NC(=O)[C@H](C)NC(=O)[C@H](CS(=O)(=O)O)NC(=O)[C@H](C)NC(=O)[C@@H](N)Cc1ccc(O)cc1)C(=O)N[C@@H](Cc1ccccc1)C(=O)N[C@H](C(=O)N[C@@H](CC(N)=O)C(=O)N[C@@H](CO)C(=O)N[C@@H](Cc1ccc(O)cc1)C(=O)N[C@@H](CCCNC(=N)N)C(=O)N[C@@H](CCCCN)C(=O)N[C@H](C(=O)N[C@@H](CC(C)C)C(=O)NCC(=O)N[C@@H](CCC(N)=O)C(=O)N[C@@H](CC(C)C)C(=O)N[C@@H](CO)C(=O)N[C@@H](C)C(=O)N[C@@H](CCCNC(=N)N)C(=O)N[C@@H](CCCCN)C(=O)N[C@@H](CC(C)C)C(=O)N[C@@H](CC(C)C)C(=O)N[C@@H](CCC(N)=O)C(=O)N[C@@H](CS(=O)(=O)O)C(=O)N[C@H](C(=O)N[C@@H](CC(C)C)C(=O)N[C@@H](CC(N)=O)C(=O)N[C@@H](CCCNC(=N)N)C(=O)N[C@@H](CCC(N)=O)C(=O)N[C@@H](CCC(N)=O)C(=O)NCC(N)=O)[C@@H](C)CC)C(C)C)[C@@H](C)O [Compound 2, Cya^3,25, Leu²⁷bGRF(1-32)NH₂] (H-YA[Cya]AIFTNSYRKVLGQLSARKLLQ[Cya]ILNRQQG-NH2) | 0.11 |  |  |  |
| CC[C@H](C)[C@H](NC(=O)[C@H](C)NC(=O)[C@H](CS(=O)(=O)O)NC(=O)[C@H](C)NC(=O)CCc1ccc(O)cc1)C(=O)N[C@@H](Cc1ccccc1)C(=O)N[C@H](C(=O)N[C@@H](CC(N)=O)C(=O)N[C@@H](CO)C(=O)N[C@@H](Cc1ccc(O)cc1)C(=O)N[C@@H](CCCNC(=N)N)C(=O)N[C@@H](CCCCN)C(=O)N[C@H](C(=O)N[C@@H](CC(C)C)C(=O)NCC(=O)N[C@@H](CCC(N)=O)C(=O)N[C@@H](CC(C)C)C(=O)N[C@@H](CO)C(=O)N[C@@H](C)C(=O)N[C@@H](CCCNC(=N)N)C(=O)N[C@@H](CCCCN)C(=O)N[C@@H](CC(C)C)C(=O)N[C@@H](CC(C)C)C(=O)N[C@@H](CCC(N)=O)C(=O)N[C@@H](CC(=O)O)C(=O)N[C@H](C(=O)N[C@@H](CC(C)C)C(=O)N[C@@H](CC(N)=O)C(=O)N[C@@H](CCCNC(=N)N)C(=O)N[C@@H](CCC(N)=O)C(=O)N[C@@H](CCC(N)=O)C(=O)NCC(N)=O)[C@@H](C)CC)C(C)C)[C@@H](C)O [Compound 5, Desamino-Tyr¹, Cya³, Leu²⁷-bGRF(1-32)NH₂] (Desaminotyrosyl-A[Cya]AIFTNSYRKVLGQLSARKLLQDILNRQQG-NH2) | 1.01 | 76% |  |  |
| CC[C@H](C)[C@H](NC(=O)[C@H](C)NC(=O)[C@H](CS(=O)(=O)O)NC(=O)[C@@H](C)NC(=O)CCc1ccc(O)cc1)C(=O)N[C@@H](Cc1ccccc1)C(=O)N[C@H](C(=O)N[C@@H](CC(N)=O)C(=O)N[C@@H](CO)C(=O)N[C@@H](Cc1ccc(O)cc1)C(=O)N[C@@H](CCCNC(=N)N)C(=O)N[C@@H](CCCCN)C(=O)N[C@H](C(=O)N[C@@H](CC(C)C)C(=O)NCC(=O)N[C@@H](CCC(N)=O)C(=O)N[C@@H](CC(C)C)C(=O)N[C@@H](CO)C(=O)N[C@@H](C)C(=O)N[C@@H](CCCNC(=N)N)C(=O)N[C@@H](CCCCN)C(=O)N[C@@H](CC(C)C)C(=O)N[C@@H](CC(C)C)C(=O)N[C@@H](CCC(N)=O)C(=O)N[C@@H](CC(=O)O)C(=O)N[C@H](C(=O)N[C@@H](CC(C)C)C(=O)N[C@@H](CC(N)=O)C(=O)N[C@@H](CCCNC(=N)N)C(=O)N[C@@H](CCC(N)=O)C(=O)N[C@@H](CCC(N)=O)C(=O)NCC(N)=O)[C@@H](C)CC)C(C)C)[C@@H](C)O [Compound 6, Desamino-Tyr¹, D-Ala²,, Cya³, Leu²⁷-bGRF(1-32)NH₂] (Desaminotyrosyl-[dA][Cya]AIFTNSYRKVLGQLSARKLLQDILNRQQG-NH2) | 0.26 | 51% |  |  |
| CC[C@H](C)[C@H](NC(=O)[C@H](C)NC(=O)[C@H](CS(=O)(=O)O)NC(=O)[C@@H](C)NC(=O)CCc1ccc(O)cc1)C(=O)N[C@@H](Cc1ccccc1)C(=O)N[C@H](C(=O)N[C@@H](CC(N)=O)C(=O)N[C@@H](CO)C(=O)N[C@@H](Cc1ccc(O)cc1)C(=O)N[C@@H](CCCNC(=N)N)C(=O)N[C@@H](CCCCN)C(=O)N[C@H](C(=O)N[C@@H](CC(C)C)C(=O)N[C@@H](C)C(=O)N[C@@H](CCC(N)=O)C(=O)N[C@@H](CC(C)C)C(=O)N[C@@H](CO)C(=O)N[C@@H](C)C(=O)N[C@@H](CCCNC(=N)N)C(=O)N[C@@H](CCCCN)C(=O)N[C@@H](CC(C)C)C(=O)N[C@@H](CC(C)C)C(=O)N[C@@H](CCC(N)=O)C(=O)N[C@@H](CC(=O)O)C(=O)N[C@H](C(=O)N[C@@H](CC(C)C)C(=O)N[C@@H](CC(N)=O)C(=O)N[C@@H](CCCNC(=N)N)C(=O)N[C@@H](CCC(N)=O)C(=O)N[C@@H](CCC(N)=O)C(=O)NCC(N)=O)[C@@H](C)CC)C(C)C)[C@@H](C)O [Compound 10, Desamino-Tyr¹, D-Ala², Cya³, Ala¹⁵, Leu²⁷-bGRF(1-32)NH₂] (Desaminotyrosyl-[dA][Cya]AIFTNSYRKVLAQLSARKLLQDILNRQQG-NH2) | 1.40 |  |  |  |
| CC[C@H](C)[C@H](NC(=O)[C@H](C)NC(=O)[C@H](CS(=O)(=O)O)NC(=O)[C@H](C)NC(=O)CCc1ccc(O)cc1)C(=O)N[C@@H](Cc1ccccc1)C(=O)N[C@H](C(=O)N[C@@H](CO)C(=O)N[C@@H](CO)C(=O)N[C@@H](Cc1ccc(O)cc1)C(=O)N[C@@H](CCCNC(=N)N)C(=O)N[C@@H](CCCNC(=N)N)C(=O)N[C@H](C(=O)N[C@@H](CC(C)C)C(=O)N[C@@H](C)C(=O)N[C@@H](CCC(N)=O)C(=O)N[C@@H](CC(C)C)C(=O)N[C@@H](CO)C(=O)N[C@@H](C)C(=O)N[C@@H](CCCNC(=N)N)C(=O)N[C@@H](CCCNC(=N)N)C(=O)N[C@@H](CC(C)C)C(=O)N[C@@H](CC(C)C)C(=O)N[C@@H](CCC(N)=O)C(=O)N[C@@H](CC(=O)O)C(=O)N[C@H](C(=O)N[C@@H](CC(C)C)C(=O)N[C@@H](CO)C(=O)N[C@@H](CCCNC(=N)N)C(=O)N[C@@H](CCC(N)=O)C(=O)N[C@@H](CCC(N)=O)C(=O)NCC(N)=O)[C@@H](C)CC)C(C)C)[C@@H](C)O [Compound 12, DesaminoTyr¹, Cya³, Ser⁸, Arg¹², Ala¹⁵, Leu²⁷, Ser²⁸, bGRF(1-32)NH₂] (Desaminotyrosyl-A[Cya]AIFTSSYRRVLAQLSARRLLQDILSRQQG-NH2) |  | 67% | 0.54 |  |
| CC[C@H](C)[C@H](NC(=O)[C@H](C)NC(=O)[C@H](CC(=O)O)NC(=O)[C@H](C)NC(=O)CCc1ccc(O)cc1)C(=O)N[C@@H](Cc1ccccc1)C(=O)N[C@H](C(=O)N[C@@H](CO)C(=O)N[C@@H](CO)C(=O)N[C@@H](Cc1ccc(O)cc1)C(=O)N[C@@H](CCCNC(=N)N)C(=O)N[C@@H](CCCNC(=N)N)C(=O)N[C@H](C(=O)N[C@@H](CC(C)C)C(=O)N[C@@H](C)C(=O)N[C@@H](CCC(N)=O)C(=O)N[C@@H](CC(C)C)C(=O)N[C@@H](CO)C(=O)N[C@@H](C)C(=O)N[C@@H](CCCNC(=N)N)C(=O)N[C@@H](CCCNC(=N)N)C(=O)N[C@@H](CC(C)C)C(=O)N[C@@H](CC(C)C)C(=O)N[C@@H](CCC(N)=O)C(=O)N[C@@H](CS(=O)(=O)O)C(=O)N[C@H](C(=O)N[C@@H](CC(C)C)C(=O)N[C@@H](CO)C(=O)N[C@@H](CCCNC(=N)N)C(=O)N[C@@H](CCC(N)=O)C(=O)N[C@@H](CCC(N)=O)C(=O)NCC(N)=O)[C@@H](C)CC)C(C)C)[C@@H](C)O [Compound 14, DesaminoTyr¹, Ser⁸, Arg¹², Ala¹⁵, Cya²⁵, Leu²⁷, Ser²⁸, bGRF(1-32)NH₂] (Desaminotyrosyl-ADAIFTSSYRRVLAQLSARRLLQ[Cya]ILSRQQG-NH2) |  | 65% | 1.21 |  |
| CC[C@H](C)[C@H](NC(=O)[C@H](C)NC(=O)[C@H](CC(=O)O)NC(=O)[C@H](C)NC(=O)Cc1ccc(O)cc1)C(=O)N[C@@H](Cc1ccccc1)C(=O)N[C@H](C(=O)N[C@@H](CO)C(=O)N[C@@H](CO)C(=O)N[C@@H](Cc1ccc(O)cc1)C(=O)N[C@@H](CCCNC(=N)N)C(=O)N[C@@H](CCCNC(=N)N)C(=O)N[C@H](C(=O)N[C@@H](CC(C)C)C(=O)N[C@@H](C)C(=O)N[C@@H](CCC(N)=O)C(=O)N[C@@H](CC(C)C)C(=O)N[C@@H](CO)C(=O)N[C@@H](C)C(=O)N[C@@H](CCCNC(=N)N)C(=O)N[C@@H](CCCNC(=N)N)C(=O)N[C@@H](CC(C)C)C(=O)N[C@@H](CC(C)C)C(=O)N[C@@H](CCC(N)=O)C(=O)N[C@@H](CS(=O)(=O)O)C(=O)N[C@H](C(=O)N[C@@H](CC(C)C)C(=O)N[C@@H](CO)C(=O)N[C@@H](CCCNC(=N)N)C(=O)N[C@@H](CCC(N)=O)C(=O)N[C@@H](CCC(N)=O)C(=O)NCC(N)=O)[C@@H](C)CC)C(C)C)[C@@H](C)O [Compound 15, Desamino PHPG¹, Ser⁸, Arg¹², Ala¹⁵, Cya²⁵, Leu²⁷, Ser²⁸, bGRF(1-32)NH₂] (X1-ADAIFTSSYRRVLAQLSARRLLQ[Cya]ILSRQQG-NH2) |  | 65% | 0.97 |  |
| DesaminoTyr¹, Cya³, Ser⁸, Arg¹², Ala¹⁵, Arg²¹, Leu²⁷, Ser²⁸, Hse³³ bGRF(1-33)lactone [Compound 20] |  |  |  | high potency |
